Converted amounts (≈) assume the structure as drawn.
Columns and labels:
[1] = tested on: souches de S. aureus issues de prélèvements de plaies du pied infectées chez des patients diabétiques; experiment: Antibiotic susceptibility test (MIC, 96-well microplate, OD 600 nm) in wound medium of the invention (MP); assay type: cell-based; settings: for MIC: Staphylococcus aureus, read-out: CMI en milieu plaie MP
Text: (§1) • La Figure 1 représente des courbes de croissance de bactéries en fonction du milieu de culture. Sur cette figure, les ordonnées correspondent au logarithme d'unités formant colonie par millilitre de milieu de culture (Log UFC/ml) et les abscisses, au temps en heure (H). La Figure 1A représente les courbes correspondant à la croissance de 2 souches de S. aureus, Newman (gauche) et SAC1 (droite), dans le milieu BHI (courbe avec indicateurs ronds) et un exemple de milieu selon l'invention (MP) (courbe avec indicateurs carrés). La Figure 1B représente les courbes correspondant à la croissance de 2 souches de P. aeruginosa, PAO1 (gauche) et PAC1 (droite), dans le milieu BHI (courbe avec indicateurs ronds) et un exemple de milieu selon l'invention (MP) (courbe avec indicateurs carrés). La Figure 1C représente les courbes correspondant à la croissance de 2 souches cliniques S. aureus SAC1 et P. aeruginosa PAC1, en coculture dans le milieu BHI (P. aeruginosa BHI ou S. aureus BHI) et un exemple de milieu selon l'invention (MP) (P. aeruginosa MP ou S. aureus MP). La mesure de différence significative, réalisée par le test de Student, entre les valeurs d'UFC/mL est exprimée, soit par (***) qui correspond à une p-value <0,001, soit par (**) qui correspond à une p-value <0,01. • La Figure 2 représente les résultats obtenus d'une détermination de l'adhésion et de la formation de biofilm par dénombrement à 24h. Sur cette figure, les ordonnées correspondent au logarithme d'unités formant colonie par millilitre de milieu de culture (Log UFC/ml). La Figure 2A représente un histogramme ou diagramme en bâton du nombre de bactéries dénombrées suite à des cultures séparées de souche S. aureus Newman (Newman), S. aureus SAC1 (SAC 1), P. aeruginosa PAO1 (PAO1) ou P. aeruginosa PAC1 (PAC1), pendant 24H dans un milieu BHI (BHI) (bâtons noirs) ou dans un exemple de milieu selon l'invention (MP) (bâtons gris). La Figure 2B montre sous forme d'histogramme le nombre de bactéries dénombrées suite à des co-cultures des souches de référence S. aureus Newman et P. aeruginosa PAO1 (PAO1/Newman), ainsi que du couple de souches cliniques S. aureus SAC1 et P. aeruginosa PAC1 (PAC 1/SAC1), pendant 24H dans un milieu BHI (BHI) (bâtons noirs) ou dans un exemple de milieu selon l'invention (MP) (bâtons gris). La mesure de différence significative, réalisée par le test de Student, entre les valeurs d'UFC est exprimée, soit par (***) qui correspond à une p-value <0,001, soit par (**) qui correspond à une p-value <0,01. • La Figure 3 représente les résultats obtenus d'une détermination de sensibilité à des antibiotiques de souches cliniques de S. aureus issues d'infections de plaies du pied chez le diabétique. Les données cliniques, anonymisées, nécessaires à l'interprétation des résultats, consistaient en l'antibiothérapie donnée au patient, ainsi que la qualification par les médecins hospitaliers d'un succès ou échec thérapeutique. La définition de succès ou échec thérapeutique est définie comme suit. Le patient commence et suit l'antibiothérapie prescrite et un deuxième prélèvement microbiologique est effectué lors du dernier jour de traitement de la 1ère antibiothérapie (± 2 jours). Ce prélèvement est utilisé pour déterminer la présence/absence du pathogène ciblé par l'antibiothérapie, S. aureus. Si ce prélèvement a montré la persistance d'un S. aureus, l'antibiothérapie est en échec. A l'inverse, en cas d'absence de S. aureus, l'antibiothérapie est associée à un succès thérapeutique. Les antibiogrammes ont été réalisés classiquement sur une durée de 18h ± 2h en accord avec les recommandations de l'EUCAST. Une gamme de l'antibiotique à tester a été réalisée. • La Figure 3A montre sous forme d'histogramme les résultats des CMI déduites d'antibiogrammes sur 11 souches testées en présence d'amoxicilline / clavulanate de potassium (commercialisé par exemple sous le nom d'Augmentin (marque déposée)).

[2] = tested on: souches de S. aureus issues de prélèvements de plaies du pied infectées chez des patients diabétiques; experiment: Antibiotic susceptibility test (MIC, 96-well microplate, OD 600 nm) in Mueller-Hinton medium (MH); assay type: cell-based; set-up: key to Classification (S) ou (R) en MH: S (sensible); R (résistante); settings: for MIC: Staphylococcus aureus, read-out: CMI en milieu MH
Text: as §1

## CCC[C@@H]1C[C@@H](C(=O)N[C@@H]([C@H]2O[C@H](SC)[C@H](O)[C@@H](O)[C@H]2O)[C@H](C)Cl)N(C)C1 [clindamycine]
[1]; souche C01P009
  MIC: 0.25 µg/mL (≈ 0.588 µM)
  Classification (S) ou (R) en MP: (S) (valeur de CMI mesurée dans un milieu plaie, exemple de milieu selon l'invention (MP) inférieure ou égale au seuil déterminé et peuvent être classifiées comme sensibles (noté S dans le tableau 5C))
[1]; souche C01P010
  MIC: 2 µg/mL (≈ 4.71 µM)
  Classification (S) ou (R) en MP: (R) (valeur de CMI mesurée dans un milieu plaie, exemple de milieu selon l'invention (MP), supérieure au seuil et peuvent être classifiées comme résistantes (noté R dans le tableau 5C))
[1]; souche C03P003
  MIC: 0.25 µg/mL (≈ 0.588 µM)
  Classification (S) ou (R) en MP: (S) (valeur de CMI mesurée dans un milieu plaie, exemple de milieu selon l'invention (MP) inférieure ou égale au seuil déterminé et peuvent être classifiées comme sensibles (noté S dans le tableau 5C))
[1]; souche C03P004
  MIC: 0.25 µg/mL (≈ 0.588 µM)
  Classification (S) ou (R) en MP: (S) (valeur de CMI mesurée dans un milieu plaie, exemple de milieu selon l'invention (MP) inférieure ou égale au seuil déterminé et peuvent être classifiées comme sensibles (noté S dans le tableau 5C))
[1]; souche C03P005
  MIC: 1 µg/mL (≈ 2.35 µM)
  Classification (S) ou (R) en MP: (R) (valeur de CMI mesurée dans un milieu plaie, exemple de milieu selon l'invention (MP), supérieure au seuil et peuvent être classifiées comme résistantes (noté R dans le tableau 5C))
[1]; souche C03P009
  MIC: 0.5 µg/mL (≈ 1.18 µM)
  Classification (S) ou (R) en MP: (S) (valeur de CMI mesurée dans un milieu plaie, exemple de milieu selon l'invention (MP) inférieure ou égale au seuil déterminé et peuvent être classifiées comme sensibles (noté S dans le tableau 5C))
[2]; souche C01P009
  MIC: 0.25 µg/mL (≈ 0.588 µM)
  Classification (S) ou (R) en MH: (S)
[2]; souche C01P010
  MIC: 0.25 µg/mL (≈ 0.588 µM)
  Classification (S) ou (R) en MH: (S)
[2]; souche C03P003
  MIC: 0.25 µg/mL (≈ 0.588 µM)
  Classification (S) ou (R) en MH: (S)
[2]; souche C03P004
  MIC: 0.25 µg/mL (≈ 0.588 µM)
  Classification (S) ou (R) en MH: (S)
[2]; souche C03P005
  MIC: 0.25 µg/mL (≈ 0.588 µM)
  Classification (S) ou (R) en MH: (S)
[2]; souche C03P009
  MIC: 0.5 µg/mL (≈ 1.18 µM)
  Classification (S) ou (R) en MH: (S)

## amoxicilline / clavulanate de potassium [amoxicilline/clavulanate de potassium]
[1]; souche C01P012
  CMI en milieu plaie MP: 0,25 mg/L / µg/L
  Classification (S) ou (R) en MP: (S) (valeur de CMI mesurés dans l'exemple de milieu selon l'invention (MP), inférieure ou égale au seuil et ont été et peuvent être classifiées comme sensibles (noté S dans le tableau 5A))
[1]; souche C03P001
  CMI en milieu plaie MP: 0,5 mg/L / µg/L
  Classification (S) ou (R) en MP: (S) (valeur de CMI mesurés dans l'exemple de milieu selon l'invention (MP), inférieure ou égale au seuil et ont été et peuvent être classifiées comme sensibles (noté S dans le tableau 5A))
[1]; souche C03P008
  CMI en milieu plaie MP: 1 mg/L / µg/L
  Classification (S) ou (R) en MP: (R) (valeur de CMI mesurée dans l'exemple de milieu selon l'invention (MP) supérieure au seuil et peuvent être classifiées comme résistantes (noté R dans le tableau 5A))
[1]; souche C04P003
  CMI en milieu plaie MP: 0,25 mg/L / µg/L
  Classification (S) ou (R) en MP: (S) (valeur de CMI mesurés dans l'exemple de milieu selon l'invention (MP), inférieure ou égale au seuil et ont été et peuvent être classifiées comme sensibles (noté S dans le tableau 5A))
[1]; souche C04P005f
  CMI en milieu plaie MP: 0,5 mg/L / µg/L
  Classification (S) ou (R) en MP: (S) (valeur de CMI mesurés dans l'exemple de milieu selon l'invention (MP), inférieure ou égale au seuil et ont été et peuvent être classifiées comme sensibles (noté S dans le tableau 5A))
[1]; souche C04P005i
  CMI en milieu plaie MP: 0,5 mg/L / µg/L
  Classification (S) ou (R) en MP: (S) (valeur de CMI mesurés dans l'exemple de milieu selon l'invention (MP), inférieure ou égale au seuil et ont été et peuvent être classifiées comme sensibles (noté S dans le tableau 5A))
[1]; souche C04P007
  CMI en milieu plaie MP: 1 mg/L / µg/L
  Classification (S) ou (R) en MP: (R) (valeur de CMI mesurée dans l'exemple de milieu selon l'invention (MP) supérieure au seuil et peuvent être classifiées comme résistantes (noté R dans le tableau 5A))
[1]; souche C06P001f
  CMI en milieu plaie MP: 2 mg/L / µg/L
  Classification (S) ou (R) en MP: (R) (valeur de CMI mesurée dans l'exemple de milieu selon l'invention (MP) supérieure au seuil et peuvent être classifiées comme résistantes (noté R dans le tableau 5A))
[1]; souche C06P001 i
  CMI en milieu plaie MP: 4 mg/L / µg/L
  Classification (S) ou (R) en MP: (R) (valeur de CMI mesurée dans l'exemple de milieu selon l'invention (MP) supérieure au seuil et peuvent être classifiées comme résistantes (noté R dans le tableau 5A))
[1]; souche C06P003f
  CMI en milieu plaie MP: 1 mg/L / µg/L
  Classification (S) ou (R) en MP: (R) (valeur de CMI mesurée dans l'exemple de milieu selon l'invention (MP) supérieure au seuil et peuvent être classifiées comme résistantes (noté R dans le tableau 5A))
[1]; souche C06P003i
  CMI en milieu plaie MP: 2 mg/L / µg/L
  Classification (S) ou (R) en MP: (R) (valeur de CMI mesurée dans l'exemple de milieu selon l'invention (MP) supérieure au seuil et peuvent être classifiées comme résistantes (noté R dans le tableau 5A))
[2]; souche C01P012
  CMI en milieu MH: 0,25 mg/L / µg/L
  Classification (S) ou (R) en MH: (S)
[2]; souche C03P001
  CMI en milieu MH: 0,25 mg/L / µg/L
  Classification (S) ou (R) en MH: (S)
[2]; souche C03P008
  CMI en milieu MH: 0,5 mg/L / µg/L
  Classification (S) ou (R) en MH: (S)
[2]; souche C04P003
  CMI en milieu MH: 0,25 mg/L / µg/L
  Classification (S) ou (R) en MH: (S)
[2]; souche C04P005f
  CMI en milieu MH: 0,5 mg/L / µg/L
  Classification (S) ou (R) en MH: (S)
[2]; souche C04P005i
  CMI en milieu MH: 0,5 mg/L / µg/L
  Classification (S) ou (R) en MH: (S)
[2]; souche C04P007
  CMI en milieu MH: 0,25 mg/L / µg/L
  Classification (S) ou (R) en MH: (S)
[2]; souche C06P001f
  CMI en milieu MH: 0,25 mg/L / µg/L
  Classification (S) ou (R) en MH: (S)
[2]; souche C06P001 i
  CMI en milieu MH: 0,25 mg/L / µg/L
  Classification (S) ou (R) en MH: (S)
[2]; souche C06P003f
  CMI en milieu MH: 0,25 mg/L / µg/L
  Classification (S) ou (R) en MH: (S)
[2]; souche C06P003i
  CMI en milieu MH: 0,25 mg/L / µg/L
  Classification (S) ou (R) en MH: (S)

Reference: patent EP4060021A1, “MIMETIC MICROBIOLOGICAL CULTURE MEDIUM AND USES THEREOF” (BIOFILM PHARMA, priority 2021, dated 2022)
